The values below come from patent US20140221301A1, “COMBINATION TREATMENT FOR CANCER” (priority 2011, published 2014).

Data set [1] has as its system bacterial protein synthesis. To be noted: cited from earlier work.
In data set [2] the test system is complex II. Nature of the data set: Respiratory chain enzyme activity relative to citrate synthase, complex II. The data set is classed as cell-based, human. The following applies: TEX cells, 2.5 μM and 5 μM, 72 hours. The procedure:
(§1) FIG. 4. Tigecycline decreases mitochondrial Cox-1 protein levels in TEX cells. (A) Cells from TEX, OCI-AML2 and two primary AML patients were treated with increasing concentrations (2.5 μM and 5 μM) of tigecycline for 36 and 48 hours of tigecycline. Total proteins were extracted and analyzed by western blotting for Cox-1, Cox-2, Cox-4, grp78, XIAP, actin and tubulin. (B) TEX and AML patient cells were treated with increasing concentrations (2.5 μM and 5 μM) of tigecycline. Cox-1, Cox-2, and Cox-4 mRNA expression relative 18S was determined by quantitative RT-PCR. Data is shown as mean±SD. (C) TEX cells were treated with increasing concentrations of tigecycline and chloramphenicol (CAP) for 72 hours. Complex I, II and IV enzyme activity relative to citrate synthase activity was determined as described in materials and methods. […] Mitochondrial membrane potential (ΔΨ) was determined by staining cells with JC-1 dye, and flow cytometry analysis (Red/Green ratio). Reactive oxygen species generation (ROS) was determined by staining with h2-DCFDA and Dihydroethidium (DHE).
The effect of tigecycline treatment on enzyme activity of the respiratory chain complexes relative to the mitochondrial non-respiratory chain enzyme citrate synthase was examined. TEX leukemia cells were treated with tigecycline for […] and then respiratory chain enzyme relative to citrate synthase activity was analyzed. […]

The conditions of data set [3]: intravenous doses of 300 mg; cited from earlier work.
Data set [4] relates to normal hematopoietic cells from G-CSF mobilized normal donors. The data set is described as follows: Mitochondrial membrane potential, JC-1, normal hematopoietic cells. The data set is classed as cell-based, human. The following applies: normal cells from two G-CSF mobilized donors. How it is done:
as §1, with “(C) TEX cells were treated with increasing concentrations of tigecycline and chloramphenicol (CAP) for 72 hours.” left out
To measure mitochondrial membrane potential, cells were treated with tigecycline similarly as described above and then washed twice with PBS and incubated with 5 μM of 5,5′,6,6′-tetrachloro-1,1′,3,3′-tetraethyl benzimidazolylcarbocyanine iodide (JC-1, Sigma-Aldrich) for 20 minutes at 37° C. Each sample was then washed twice with 1 mL PBS and resuspended in 500 μL PBS prior to being read on a BD FACSCalibur. […]

The test system of data set [5] is myeloma cell lines. Nature of the data set: Cell growth and viability, MTS assay, myeloma cell lines. The data set is classed as cell-based. To be noted: 72 hours. How it is done:
FIG. 1. […] (A) TEX and (B) M9-ENL1 cells were plated in 96-well plates and drugs were added to the wells (5 μL per well) for final concentrations of 10 μM (shown) and 1 μM. Cell growth and viability was measured at 48 hours (M9-ENL-1) and 72 hours (TEX) by MTS assay. Cell viability is shown for each compound as a percent of cells treated with DMSO alone. (C) Leukemia, (D) myeloma, and (E) solid tumor cell lines were seeded in 96-well plates and then treated with increasing concentrations of tigecycline. Cell growth and viability was measured at 72 hours by MTS assay. Cell viability is expressed as mean percentage plus or minus SD (n=3) relative to vehicle-treated cells. […] Cell viability was measured at 72 hours by MTS assay. Cell viability is expressed as mean percentage plus or minus SD (n=3) relative to vehicle-treated cells.
Human leukemia (OCI-AML2, HL60, U937) cell lines were maintained in RPMI 1640 medium. Myeloma (LP-1, KMS11, 8226, JJN3, OP-M2) cell lines were maintained in Iscove's media. […]
(§2) Cell growth and viability was assessed by the MTS assay (Promega, Madison, Wis.) according to the manufacturer's instructions. Apoptosis and cell death was measured by Annexin V-fluroscein isothiocyanate (FITC; Biovision Research Products, Mountain View, Calif.), propidium iodide staining and flow cytometry according to the manufacturer's instructions and as previously described^30.
On the technique in general: Formazan colour is commonly taken as a measure of viable cells.

The conditions of data set [6]: rat, in vivo, 30 mg/kg/day; cited from earlier work.
Data set [7] concerns primary AML patient samples. Nature of the data set: Cell viability by Annexin V staining, primary AML patient samples. The data set is classed as cell-based, human. The procedure:
as §2

What is called IC50 is the concentration needed to halve the response being measured. High values mean weaker potency, low ones greater potency.

As to `CN(C)c1cc(NC(=O)CNC(C)(C)C)c(O)c2c1C[C@H]1C[C@H]3[C@H](N(C)C)C(O)=C(C(N)=O)C(=O)[C@@]3(O)C(O)=C1C2=O` [tigecycline], the “inhibition of bacterial protein synthesis, fold greater than minocycline” value in data set [1] (relative to minocycline) was 3 fold. Besides, the “inhibition of bacterial protein synthesis, fold greater than tetracycline” value in data set [1] (relative to tetracycline) is listed as 20 fold. Besides, the “complex II activity relative to citrate synthase” value in data set [2] is “less affected”. Also, in data set [3], the tolerability result is recorded as “well tolerated save for mild nausea”. Further, the “loss of mitochondrial membrane potential” value in data set [4] is reported as “not seen”. In data set [5], this molecule had an IC50 of more than 10 µM. The toxicology findings result in data set [6] is “reversible anemia, thrombocytopenia, and leucopenia with a hypocellular bone marrow”. Further, in data set [7] (AML samples, 5 μM and 10 μM, 48 hours), the “relation of induced cytotoxicity to mitochondrial mass” value was “correlates with increasing mitochondrial mass”. The LD50 in data set [7] (more resistant group of patients, n=7, 48 hours) is more than 9 µM; in data set [7] (sensitive subset of leukemia patients, n=13, 48 hours), 5 µM.
